The nature of data set [1]: Cytotoxicity against human HCC44 cells after 96 hrs by Cell Titer Glo assay. The following applies: HCC44, 96 h. The class given is functional, cell-based. For orientation: ATP-based viability assays read luminescence as a measure of living cells.
Data set [2] has as its system A549. Nature of the data set: Cytotoxicity against human A549 cells after 96 hrs by Cell Titer Glo assay. In kind it is functional, cell-based. As to conditions: A549, 96 h.
Data set [3] can be described thus: Ratio IC50 for compound to mithramycin IC50 for mouse 3T3 cells. In kind it is cell-based. The following applies: NIH3T3 cells, read-out: Ratio IC50.

The structures appear in SMILES notation.

Broadly, the IC50 is the concentration that inhibits the measured activity by half. Low values mean greater potency, high ones weaker potency. In data set [1], `COC(=O)[C@@H](OC)[C@@H]1Cc2cc3cc(O[C@H]4C[C@@H](O[C@@H]5C[C@@H](O)[C@H](OC)[C@@H](C)O5)[C@H](OC(C)=O)[C@@H](C)O4)c(C)c(O)c3c(O)c2C(=O)[C@H]1O[C@H]1C[C@H](O[C@H]2C[C@H](O[C@H]3C[C@@](C)(O)[C@@H](O)[C@H](C)O3)[C@H](O)[C@@H](C)O2)[C@H](O)[C@@H](C)O1` registered an IC50 of 3400 nM.

On to `CO[C@H]1[C@H](O)C[C@@H](O[C@@H]2C[C@H](Oc3cc4cc5c(c(O)c4c(O)c3C)C(=O)[C@@H](O[C@H]3C[C@H](O[C@H]4C[C@H](O[C@H]6C[C@@](C)(O)[C@@H](OC(C)=O)[C@H](C)O6)[C@H](O)[C@@H](C)O4)[C@H](O)[C@@H](C)O3)[C@H]([C@H](OC)C(=O)O)C5)O[C@H](C)[C@H]2OC(C)=O)O[C@@H]1C` [CHROMOMYCIN SA], for which the IC50 in data set [1] turned out to be 210 nM; in data set [2], 560 nM.

Consider `CO[C@H]1[C@H](O)C[C@@H](O[C@@H]2C[C@H](Oc3cc4cc5c(c(O)c4c(O)c3C)C(=O)[C@@H](O[C@H]3C[C@H](O[C@H]4C[C@H](O[C@H]6C[C@@](C)(O)[C@@H](OC(=O)C(C)C)[C@H](C)O6)[C@H](O)[C@@H](C)O4)[C@H](O)[C@@H](C)O3)[C@H]([C@H](OC)C(=O)[C@@H](O)[C@@H](C)O)C5)O[C@H](C)[C@H]2OC(C)=O)O[C@@H]1C` [CHROMOMYCIN A2], for which the IC50 in data set [1] stood at 0.26 nM; in data set [2] it was 0.44 nM.

For the compound `CO[C@H]1[C@H](O)C[C@@H](O[C@@H]2C[C@H](Oc3cc4cc5c(c(O)c4c(O)c3C)C(=O)[C@@H](O[C@H]3C[C@H](O[C@H]4C[C@H](O[C@H]6C[C@@](C)(O)[C@@H](O)[C@H](C)O6)[C@H](O)[C@@H](C)O4)[C@H](O)[C@@H](C)O3)[C@H]([C@H](OC)C(=O)[C@@H](O)[C@@H](C)O)C5)O[C@H](C)[C@H]2O)O[C@@H]1C`, the IC50 in data set [1] and in data set [2] was over 50000 nM throughout.

On to `CO[C@H]1[C@H](O)C[C@@H](O[C@@H]2C[C@H](Oc3cc4cc5c(c(O)c4c(O)c3C)C(=O)[C@@H](O[C@H]3C[C@H](O[C@H]4C[C@H](O[C@H]6C[C@@](C)(O)[C@@H](O)[C@H](C)O6)[C@H](O)[C@@H](C)O4)[C@H](O)[C@@H](C)O3)[C@H]([C@H](OC)C(=O)[C@@H](O)[C@@H](C)O)C5)O[C@H](C)[C@H]2OC(C)=O)O[C@@H]1C` [DEACETYL CHROMOMYCIN A3], for which the figures for the IC50 in data set [1] and in data set [2] were 670 nM and 1200 nM, respectively.

Take `CO[C@H]1[C@H](O)C[C@@H](O[C@@H]2C[C@H](Oc3cc4cc5c(c(O)c4c(O)c3C)C(=O)[C@@H](O[C@H]3C[C@H](O[C@H]4C[C@H](O[C@H]6C[C@@](C)(O)[C@@H](OC(=O)C(C)C)[C@H](C)O6)[C@H](O)[C@@H](C)O4)[C@H](O)[C@@H](C)O3)[C@H]([C@H](OC)C(=O)O)C5)O[C@H](C)[C@H]2OC(C)=O)O[C@@H]1C` [CHROMOMYCIN SA2]: the 50% inhibitory concentration (IC50) was determined as 780 nM in data set [1] and 1500 nM in data set [2].

As to `COC(=O)[C@@H](OC)[C@@H]1Cc2cc3cc(O[C@H]4C[C@@H](O[C@@H]5C[C@@H](O)[C@H](OC)[C@@H](C)O5)[C@H](OC(C)=O)[C@@H](C)O4)c(C)c(O)c3c(O)c2C(=O)[C@H]1O[C@H]1C[C@H](O[C@H]2C[C@H](O[C@H]3C[C@@](C)(O)[C@@H](OC(=O)C(C)C)[C@H](C)O3)[C@H](O)[C@@H](C)O2)[C@H](O)[C@@H](C)O1`, in data set [1], the IC50 was found to be 56 nM.

In the case of `CO[C@H](C(=O)[C@@H](O)[C@@H](C)O)[C@@H]1Cc2cc3cc(O[C@H]4C[C@@H](O[C@H]5C[C@@H](O)[C@H](O)[C@@H](C)O5)[C@H](O)[C@@H](C)O4)c(C)c(O)c3c(O)c2C(=O)[C@H]1O[C@H]1C[C@@H](O[C@H]2C[C@@H](O[C@H]3C[C@](C)(O)[C@H](O)[C@@H](C)O3)[C@@H](O)[C@@H](C)O2)[C@H](O)[C@@H](C)O1` [PLICAMYCIN], in data set [3], the selectivity ratio was found to be 1500.

With `CO[C@H]1[C@H](O)C[C@@H](O[C@@H]2C[C@H](Oc3cc4cc5c(c(O)c4c(O)c3C)C(=O)[C@@H](O[C@H]3C[C@H](O[C@H]4C[C@H](O[C@H]6C[C@@](C)(O)[C@@H](O)[C@H](C)O6)[C@H](O)[C@@H](C)O4)[C@H](O)[C@@H](C)O3)[C@H]([C@H](OC)C(=O)O)C5)O[C@H](C)[C@H]2OC(C)=O)O[C@@H]1C` [CHROMOMYCIN SA3], the IC50 in data set [1] is over 33300 nM; in data set [2] it was over 50000 nM.

On to `CO[C@@H]1[C@H](O)C[C@@H](O[C@@H]2C[C@H](Oc3cc4cc5c(c(O)c4c(O)c3C)C(=O)[C@@H](O[C@H]3C[C@@H](O[C@H]4C[C@@H](O[C@H]6C[C@](C)(O)[C@@H](OC(C)=O)[C@H](C)O6)[C@H](O)[C@@H](C)O4)[C@H](O)[C@@H](C)O3)[C@H]([C@H](OC)C(=O)[C@@H](O)[C@@H](C)O)C5)O[C@H](C)[C@@H]2OC(C)=O)O[C@@H]1C` [CHROMOMYCIN A3], for which the half-maximal inhibitory concentration (IC50) in data set [1] was determined as 1 nM; in data set [2] it was 42 nM.

The values are drawn from ChEMBL document CHEMBL1817646, “Chromomycin SA analogs from a marine-derived Streptomyces sp” (Bioorg Med Chem, 2011).
